Test results as given in patent publication US7226598B2, “Peptide inhibitors of HIV entry” (priority 1998, dated 2007).
Read-outs that look alike come from different tables or passages of the source. Marks after values point to notes of the source that are not given here.

Assays:
HIV-1 = tested on: HIV-1
Description: HIV Infectivity Assay. Inhibitory activity of IQN17 and derivatives was determined in an HIV luciferase assay (Chen et al., 1994). Specifically, virus was made by cotransfecting 293T cells with an HIV-1 genome containing a frame-shift mutation in env and luciferase replacing the nef gene (NL43LucR-E-) along with pCMVHXB2, an expression vector with the HXB2 gp160 gene. The resultant virus is only viable for one round of infection since its genome lacks the envelope gene. The cellular debris was removed by low-speed centrifugation. The remaining viral supernatant was used to infect HOS-CD4/Fusion cells (N. Landau, National Institutes of Health AIDS Reagent Program) in the presence of the potentially inhibitory peptides. Two days post infection, the cells were lysed and luciferase activity was monitored on a Wallac AutoLumat LB953 luminometer (Gaithersburg, Md.). IC50s (the peptide concentration at which half of the viral infection is inhibited) were calculated by fitting the data to a Langmuir equation [y=k/(1+[peptide]/IC50)], where y=luciferase activity and k is a scaling constant.

[1] = Circular dichroism (helicity); format: physicochemical; settings: for CD minimum at 222 nm: 10 μM; for θ222 nm: 20 μM solution of peptide in PBS (legend of Table 1); for helicity: at 20 μM
Description: Circular Dichroism. All CD measurements were performed on an Aviv 62 DS cirucular dichroism spectrometer. […] The mean residue ellipticity (θ) was calculated by dividing the raw signal by peptide concentration (M), pathlength (mm) and number of amino acids. Percent helicity was calculated according to Chen et al. (Biochemistry, 13, 1974, p3350). Thermal denaturation scans of 10 μM peptide solutions in PBS were recorded at 222 nm. The peptide was heated at two degree intervals starting at 4° C., with an equilibration time of 1.5 minutes and an averaging time of 60 seconds.

[2] = Thermal denaturation followed by CD at 222 nm; format: physicochemical
Description: Circular Dichroism. All CD measurements were performed on an Aviv 62 DS cirucular dichroism spectrometer. Standard scans were performed on 10 μM solutions of peptide in PBS (50 mM sodium phosphate, 150 mM sodium chloride [pH 7.4]) from 200 to 260 nm in a 1 cm pathlength cuvette with a 5 second averaging time. The mean residue ellipticity (θ) was calculated by dividing the raw signal by peptide concentration (M), pathlength (mm) and number of amino acids. Percent helicity was calculated according to Chen et al. (Biochemistry, 13, 1974, p3350). Thermal denaturation scans of 10 μM peptide solutions in PBS were recorded at 222 nm. The peptide was heated at two degree intervals starting at 4° C., with an equilibration time of 1.5 minutes and an averaging time of 60 seconds.

[3] = Sedimentation equilibrium (analytical ultracentrifugation); format: physicochemical
Description: Sedimentation Equilibrium. All measurements were recorded on a Beckman XL-A analytical ultracentrifuge equipped with an An-60 Ti rotor. Lyophilized peptide was resuspended in water, and the peptide concentration was determined (Edelhoch, 1967). The solution was diluted to 100–200 μM and then dialized overnight against PBS. Following dialysis, the concentration was redetermined and the appropriate dilutions were made, using the dialysis buffer. The samples were centrifuged at speeds ranging from 19,000 to 25,000 RPM.

[4] = tested on: HIV, modified to contain a luciferase reporter gene; format: cell-based; settings: HOS cells expressing CD4 and coreceptor, 6 hours with virus, 48 hours more; read-out: IC50 of inhibition of luciferase activity
Description: HIV, modified to contain a luciferase reporter gene, is mixed with HOS cells expressing CD4 and coreceptor in the presence of diluted protein for 6 hours at 37° C. […] The virus solution is replaced, and the HOS culture is incubated 48 hours more in fresh media. Luciferase activity is measured in a luminometer.

[5] = tested on: syncytia formation between HELA cells expressing CD4 and coreceptor and CHO cells expressing gp160; experiment: Cell/cell fusion (syncytia) assay; format: cell-based, HIV; settings: HELA CD4/coreceptor + CHO gp160/Tat, 8 to 24 hours; read-out: IC50 of inhibition of syncytia formation
Description: Assays were carried out to assess the ability of IQN17 to interact with the C-region of gp41 and inhibit function of the fusion protein. This inhibition of membrane fusion by IQN17 and IQN23 and GCN4-pIQI was assessed using a cell based assay. Proteins IQN17, IQN23 and GCN4-pIQI are serially diluted in modified DMEM media with 5% FCS and aliquoted into slide chambers. HELA cells (4×10^4) expressing CD4 and coreceptor and containing a βgalactosidase gene under the control of the Tat promoter are added. CHO cells (2×10^4) expressing gp160 (precursor protein to gp120/gp41) and Tat are also added. The 400 μl miniculture is incubated at 37° for 8 to 24 hours; fused cells (syncytia) will transcribe and translate β-galactosidase. The cells are fixed in gluteraldehyde and exposed to X-gal/Fe solution for one hour. Syncytia that contain P-galactosidase turn blue-green.

[6] = Thermal denaturation followed by CD at 222 nm; format: physicochemical; settings: in 2 M GuHCl
[7] = Solubility of the peptide (observation)
[8] = read-out: IC50 (concentration at which half of viral infectivity is inhibited), Table 1
[9] = read-out: IC50 for viral infectivity
[10] = midpoint of thermal denaturation, 10 μM peptide in PBS
[11] = 20 μM peptide in PBS, 3.0 = discrete trimer

## Ac-KIEEIESKIKKIENEIARIKKLLQLTVWGIKQLQARIL-NH2 [II22N17]
HIV-1; [8]
  IC50: ~170 nM
HIV-1; [9]
  IC50: ~170 nM
[1]
  CD minimum at 222 nm: ~−41,000 deg cm^2 dmol^−1
  θ222 nm: ~−41,000 deg cm^2 dmol^−1
[2]; at 10 μM
  Melting Temperature: > 100 °C
[2]; [10]
  Melting Temperature: >100 °C
[3]; [11]
  Mobs/Mcalc: 3.02
other
  melting point: > 100 °C

## Ac-RMKQIEDKIEEIESKQKKIENEIARIKKLIEAQQHLLQLTVWGIKQLQARIL-NH2 [IQN23]
[4]
  IC50: ~80 nM
HIV-1; gp41 residues increased from 17
  gain in inhibitory activity relative to IQN17: ~6 fold
HIV-1; [8]
  IC50: ~30 nM
HIV-1; [9]
  IC50: ~30 nM
[3]; [11]
  Mobs/Mcalc: 3.29
[3]; at 20 μM
  Mobs/Mcalc: 3.3

## Ac-RMKQIEDKIEEIESKQKKIENEIARIKKLLQLTVWDIKQLQARIL-NH2 [IQN17(G572D), reference compound]
HIV-1; [8]
  IC50: ~20000 nM
HIV-1; [9]
  IC50: ~20000 nM
[1]
  θ222 nm: ~−39,000 deg cm^2 dmol^−1

## Ac-YGGIKKKEIEAIKKEQEAIKKKIEAIEKEIVQARQLLSGIVQQQNNLLRAIEAQQH-NH2 [IZN26]
[2]; [10]
  Melting Temperature: ~82 °C

## Ac-RMKQIEDKIEEIESKQKKIENEIARIKKLLQLTVWGIKQLQARIL-NH2 [IQN17]
[5]
  IC50: 20 to 80 nM
[4]
  IC50: ~250 nM
HIV-1; [8]
  IC50: ~180 nM
HIV-1; [9]
  IC50: ~180 nM
[1]
  θ222 nm: ~−36,000 deg cm^2 dmol^−1
  helicity: fully helical
[2]; at 10 μM
  Melting Temperature: above 100 °C
[2]; concentration not given
  Melting Temperature: above 100 °C
[2]; [10]
  Melting Temperature: >100 °C
[3]; [11]
  Mobs/Mcalc: 3.15
[3]; at 20 μM
  oligomeric state: discretely trimeric
other
  melting point: > 100 °C

## KQKKIENEIARIKKLLQLTVWGIKWLWARIL [IQ15N17]
HIV-1; [8]
  IC50: ~10000 nM
[1]
  CD minimum at 222 nm: approximately −27,000 deg cm^2 dmol^−1
  θ222 nm: ~−27,000 deg cm^2 dmol^−1
[2]
  thermal stability lower than that of IQ22N17: about 10 degrees
[2]; [10]
  Melting Temperature: ~64 °C

## Ac-KIKKIENEIARIKKLLQLTVWGIKQLQARIL-NH2 [II15N17]
HIV-1; [8]
  IC50: ~3000 nM
HIV-1; [9]
  IC50: ~3000 nM
[1]
  CD minimum at 222 nm: ~−33,000 deg cm^2 dmol^−1
  θ222 nm: ~−33,000 deg cm^2 dmol^−1
[2]; [10]
  Melting Temperature: ~76 °C
[3]; [11]
  Mobs/Mcalc: 2.64
other
  melting point: ~ 76 °C

## Ac-IKKEIEAIKKEQEAIKKKIEAIEKLLQLTVWGIKQLQARIL-NH2 [IZN17]
HIV-1; [8]
  IC50: 5.6 nM
[1]
  θ222 nm: ~−31,000 deg cm^2 dmol^−1
  helicity: helical
[3]; at 20 μM
  oligomeric state: discretely trimeric
other
  melting point: > 100 °C
[6]
  thermal denaturation temperature compared with IQN17: ten degrees higher

## Ac-KIEEIESKQKKIENEIARIKKLLQLTVWGIKQLQARIL-NH2 [IQ22N17]
HIV-1; [8]
  IC50: ~1000 nM
HIV-1; [9]
  IC50: ~1000 nM
[1]
  CD minimum at 222 nm: approximately −36,000 deg cm^2 dmol^−1
  θ222 nm: ~−36,000 deg cm^2 dmol^−1
[2]; at 10 μM
  Melting Temperature: below 80 °C
[2]; [10]
  Melting Temperature: ~76 °C
[3]; determined at 50 μM
  Mobs/Mcalc: 2.73*
other
  melting point: ~ 76 °C

## EIARIKKLLQLTVWGIKQLQARIL [IQ8N17]
HIV-1; [8]
  IC50: ~10000 nM

## Ac-LLQLTVWGIKQLQARIL-NH2 [N17, reference compound]
HIV-1; [8]
  IC50: ~10000 nM
HIV-1; [9]
  IC50: ~10000 nM
[7]
  solubility: difficult to get into solution—it precipitates
